Results: US12534493B2, “Bridged nucleoside and nucleotide” (Liid Pharmaceuticals, Inc., priority 2020, dated 2026)

Columns and labels:
Type in all cases: binding
[1] = tested on: single-stranded RNA: 5′-r(ACGAGAACAUCC)-3′ (SEQ ID NO: 11); test: Melting temperature (Tm) measurement, double strand-forming ability, with single-stranded RNA; conditions: duplex with single-stranded RNA SEQ ID NO: 11; for Tm: 10 mM phosphate buffer (pH7.0), 200 mM NaCl, 2.5 μM each oligonucleotide; for ΔTm/mod.: change per modification vs natural oligonucleotide
Description: (§1) A sample solution ([…]) with final concentrations of 10 mM phosphate buffer (pH7.0), 200 mM sodium chloride, and 2.5 μM each oligonucleotide was immersed in boiling water and slowly cooled to room temperature. The sample solution was cooled to 20° C., and the measurement was started. The temperature was raised to 90° C. at a rate of 0.5° C. per minute, and the absorbance at 260 nm was plotted at intervals of 0.5° C. All Tm values were calculated by the midline method and the average of three independent measurement results was taken.
(§2) conditions: 10 mM sodium phosphate buffer (pH7.0) containing 200 mM NaCl, […] of each strand

[2] = tested on: single-stranded DNA: 5′-d(ACGAGAACATCC)-3′ (SEQ ID NO: 12); test: Melting temperature (Tm) measurement, double strand-forming ability, with single-stranded DNA; conditions: duplex with single-stranded DNA SEQ ID NO: 12; for Tm: 10 mM phosphate buffer (pH7.0), 200 mM NaCl, 2.5 μM each oligonucleotide; for ΔTm/mod.: change per modification vs natural oligonucleotide
Description: as §1, §2

[3] = tested on: double-stranded hairpin DNA: 5′-d(GGCAGAAGAAAAAGAGACGC)-C18 spacer-d(GCGTCTCTTTTTCTTCTGCC)-3′ (SEQ ID NO: 23); test: Melting temperature (Tm) measurement, triple strand-forming ability, with double-stranded hairpin DNA; conditions: triplex with double-stranded hairpin DNA; for ΔTm/mod.: change per modification vs natural oligonucleotide; for Tm: footnote: 10 mM sodium phosphate buffer (pH 7.0), 200 mM NaCl, 5 mM MgCl2
Description: […] The sample solution was cooled to 15° C., and the measurement was started. The temperature was raised to 90° C. at a rate of 0.5° C. per minute, and the absorbance at 260 nm was plotted at intervals of 0.5° C. All Tm values were calculated by the midline method and the average of three independent measurement results was taken.

Row | Substance | Tm [1] [°C] | ΔTm/mod. [1] | Tm [2] [°C] | ΔTm/mod. [2] | ΔTm/mod. [3] | Tm [3] [°C]
1 | 5′-GGATGYYCTCGT-3′: modified oligonucleotide with two consecutive Y modifications (DNA GGATGTTCTCGT; two Y modified nucleotides; misc_difference (6)..(6) LNA; misc_difference (7)..(7) LNA) | 64 | +6.0 °C | 57 | +3.0 °C | – | –
2 | 5′ -TCTTCXTXTXCTCT-3′: modified oligonucleotide with three separated X modifications (DNA TCTTCTTTTTCTCT; three X modified nucleotides; (2)..(2) 2′-Deoxy-5-methylcytidine; (5)..(5) 2′-Deoxy-5-methylcytidine; misc_difference (6)..(6) Me-TaNA; misc_difference (8)..(8) Me-TaNA; misc_difference (10)..(10) Me-TaNA; (11)..(11) 2′-Deoxy-5-methylcytidine; (13)..(13) 2′-Deoxy-5-methylcytidine) | – | – | – | – | +7.3 °C | 53
3 | 5′-GGAXGXTCTCGT-3′: modified oligonucleotide with two separated X modifications (DNA GGATGTTCTCGT; DNA oligonucleotide with modified nucleotide X, X not given here, further chemistry not given here) | 66 | +7.0 °C | 58 | +3.5 °C | – | –
4 | 5′ -TCTTCTTZTTCTCT-3′: modified oligonucleotide with one Z modification; C shows 2′-deoxy-5-methylcytidine (DNA TCTTCTTTTTCTCT; Z modified nucleotide; 5-methylcytidines; (2)..(2) 2′-Deoxy-5-methylcytidine; (5)..(5) 2′-Deoxy-5-methylcytidine; misc_difference (8)..(8) ENA; (11)..(11) 2′-Deoxy-5-methylcytidine; (13)..(13) 2′-Deoxy-5-methylcytidine) | – | – | – | – | +5.0 °C | 36
5 | 5′-GGAZGZTCTCGT-3′: modified oligonucleotide with two separated Z modifications (DNA GGATGTTCTCGT; two Z modified nucleotides; misc_difference (4)..(4) ENA; misc_difference (6)..(6) ENA) | 65 | +6.5 °C | 57 | +3.0 °C | – | –
6 | 5′ -TCTTCTTXTTCTCT-3′: modified oligonucleotide with one X modification; C shows 2′-deoxy-5-methylcytidine (DNA TCTTCTTTTTCTCT; X modified nucleotide; 5-methylcytidines; (2)..(2) 2′-Deoxy-5-methylcytidine; (5)..(5) 2′-Deoxy-5-methylcytidine; misc_difference (8)..(8) Me-TaNA; (11)..(11) 2′-Deoxy-5-methylcytidine; (13)..(13) 2′-Deoxy-5-methylcytidine) | – | – | – | – | +5.0 °C | 36
7 | 5′-GGATGZZCTCGT-3′: modified oligonucleotide with two consecutive Z modifications (DNA GGATGTTCTCGT; two Z modified nucleotides; misc_difference (6)..(6) ENA; misc_difference (7)..(7) ENA) | 64 | +6.0 °C | 57 | +3.0 °C | – | –
8 | 5′ -TCTTCTTTTTCTCT-3′: unmodified triplex-forming oligonucleotide; C shows 2′-deoxy-5-methylcytidine (DNA, all C 5-methyl, backbone not given here; triplex-forming oligonucleotide) | – | – | – | – | – | 31
9 | 5′-GGATGXXCTCGT-3′: modified oligonucleotide with two consecutive X modifications (DNA GGATGTTCTCGT; DNA oligonucleotide with modified nucleotide X, X not given here, further chemistry not given here) | 66 | +7.0 °C | 58 | +3.5 °C | – | –
10 | 5′ -TCTTCTZZZTCTCT-3′: modified oligonucleotide with three consecutive Z modifications (DNA TCTTCTTTTTCTCT; three Z modified nucleotides; (2)..(2) 2′-Deoxy-5-methylcytidine; (5)..(5) 2′-Deoxy-5-methylcytidine; misc_difference (7)..(7) ENA; misc_difference (8)..(8) ENA; misc_difference (9)..(9) ENA; (11)..(11) 2′-Deoxy-5-methylcytidine; (13)..(13) 2′-Deoxy-5-methylcytidine) | – | – | – | – | +5.7 °C | 48
11 | 5′ -TCTTCTXXXTCTCT-3′: modified oligonucleotide with three consecutive X modifications (DNA TCTTCTTTTTCTCT; three X modified nucleotides; (2)..(2) 2′-Deoxy-5-methylcytidine; (5)..(5) 2′-Deoxy-5-methylcytidine; misc_difference (7)..(7) Me-TaNA; misc_difference (8)..(8) Me-TaNA; misc_difference (9)..(9) Me-TaNA; (11)..(11) 2′-Deoxy-5-methylcytidine; (13)..(13) 2′-Deoxy-5-methylcytidine) | – | – | – | – | +6.3 °C | 50
12 | 5′-GGAYGYTCTCGT-3′: modified oligonucleotide with two separated Y modifications (DNA GGATGTTCTCGT; two Y modified nucleotides; misc_difference (4)..(4) LNA; misc_difference (6)..(6) LNA) | 65 | +6.5 °C | 58 | +3.5 °C | – | –
13 | 5′ -TCTTCYTYTYCTCT-3′: modified oligonucleotide with three separated Y modifications (DNA TCTTCTTTTTCTCT; three Y modified nucleotides; (2)..(2) 2′-Deoxy-5-methylcytidine; (5)..(5) 2′-Deoxy-5-methylcytidine; misc_difference (6)..(6) LNA; misc_difference (8)..(8) LNA; misc_difference (10)..(10) LNA; (11)..(11) 2′-Deoxy-5-methylcytidine; (13)..(13) 2′-Deoxy-5-methylcytidine) | – | – | – | – | +6.7 °C | 51
14 | 5′ -TCTTCTTYTTCTCT-3′: modified oligonucleotide with one Y modification; C shows 2′-deoxy-5-methylcytidine (DNA TCTTCTTTTTCTCT; Y modified nucleotide; 5-methylcytidines; (2)..(2) 2′-Deoxy-5-methylcytidine; (5)..(5) 2′-Deoxy-5-methylcytidine; misc_difference (8)..(8) LNA; (11)..(11) 2′-Deoxy-5-methylcytidine; (13)..(13) 2′-Deoxy-5-methylcytidine) | – | – | – | – | +6.0 °C | 37
15 | 5′ -TCTTCTYYYTCTCT-3′: modified oligonucleotide with three consecutive Y modifications (DNA TCTTCTTTTTCTCT; three Y modified nucleotides; (2)..(2) 2′-Deoxy-5-methylcytidine; (5)..(5) 2′-Deoxy-5-methylcytidine; misc_difference (7)..(7) LNA; misc_difference (8)..(8) LNA; misc_difference (9)..(9) LNA; (11)..(11) 2′-Deoxy-5-methylcytidine; (13)..(13) 2′-Deoxy-5-methylcytidine) | – | – | – | – | +5.0 °C | 46
16 | 5′ -TCTTCZTZTZCTCT-3′: modified oligonucleotide with three separated Z modifications (DNA TCTTCTTTTTCTCT; three Z modified nucleotides; (2)..(2) 2′-Deoxy-5-methylcytidine; (5)..(5) 2′-Deoxy-5-methylcytidine; misc_difference (6)..(6) ENA; misc_difference (8)..(8) ENA; misc_difference (10)..(10) ENA; (11)..(11) 2′-Deoxy-5-methylcytidine; (13)..(13) 2′-Deoxy-5-methylcytidine) | – | – | – | – | +6.7 °C | 51
